From US20230310559A1, “Use of Amylase or Maltose to Treat or Prevent Neurodegeneration” (St. Jude Children's Research Hospital, Inc., priority 2020, published 2023)
“Also recorded” adds a separate entry of the source.

Legend:
Assay type in all cases: cell-based
[1] = test system: human cortical brain organoids; experiment: Multielectrode array recording of human cortical brain organoids
Procedure: Multielectrode Array Recording of Human Cortical Brain Organoids. Spontaneous neuronal activity of cortical organoids was recorded on the Axion Maestro Edge multielectrode array system. Two different methods for plating and recording were optimized from two-month old and three-month old organoids, to ensure maximum contact with electrodes. Method 1 (Two-month old cortical organoids; Maltose treatment): Growth factor reduced-cell culture matrix sold under the tradename […]® (Corning) was diluted 1:3 in chilled media containing BrainPhys and 10% ES-FBS and kept on ice. D60 cortical organoids were first sliced in half using a pair of fine tweezers. Each half was then plated onto one well of a 24-well Cytoview plate (Axion Biosystems), where each well contained a grid of 16 electrodes. After placing the organoid slice onto a dry and empty well using a sterile flat spatula, 15 μL of the chilled and diluted cell culture matrix sold under the tradename […]® was added onto the slice. A P10 tip was used to position the slice to the center of the well over the grid of electrodes. Three such plates were prepared. The plates were incubated at 37° C. for 3 hours for the cell culture matrix to solidify over the organoid slices. After 3 hours, 500 μL of BrainPhys media supplemented with 100× N2 supplement, 50× B27 supplement without Vitamin A, 10 ng/ml BDNF and 10 ng/ml GDNF were added slowly to each well. Every three days, 300 μL media in each well was replaced with fresh media three days and six days after plating. Seven days after plating, the plates were treated with either control or maltose containing media; all treatment conditions were included in each of the four plates. Three days after treatment, spontaneous activity was recorded from each plate. The plates were then subjected to heat shock for 7 hours at 41.5° C. Spontaneous activity in each plate was recorded again after the heat shock. This recording was repeated after 17 hours of recovery and after 43 hours of recovery. Data was analyzed using the Neural Metric tool (Axion Biosystems).

[2] = test system: human cortical brain organoids; experiment: RNA-sequencing of human cortical brain organoids
Procedure: RNA-Sequencing of Human Cortical Brain Organoids. RNA sequencing libraries for each sample were prepared with 1 μg total RNA using the Illumina TRUSEQ® RNA Sample Prep v2 Kit per the manufacturer's instructions, and sequencing was completed on the Illumina HiSeq 2000. The 100 bp paired-end reads were trimmed, filtered against quality (Phred-like Q20 or greater) and length (50 bp or longer), and aligned to a human reference sequence GRCh38 (UCSC hg38), using CLC Genomics Workbench v12.0.1 (Qiagen). For gene expression comparisons, the TPM (transcript per million) counts were obtained from the RNA-Seq Analysis tool. A total of 19749 genes with TPM greater than one in at least one sample were in the principal component analysis (PCA) and the gene expression analysis was performed using the non-parametric ANOVA using the Kruskal-Wallis and Dunn's tests on log-transformed TPM counts between three replicates of each experimental group, implemented in Partek Genomics Suite v7.0 software (Partek Inc.).
(§1) Drug Treatment of Human Cortical Brain Organoids. An additional 0.5 mL of culture medium was added to reach the final amount of 1 mL with 0, 3, 5, 10, 20, 40, or 80 mg of maltose per mL, or with 10, 20, 40 μL of porcine alpha-Amylase (MP Biomedicals) per mL, as indicated. After culturing at 37° C. for 3 days, the organoids were kept for 7 hours at 41.5° C. for heat shock, or at 37° C. (control). Subsequently, the organoids were collected and snap frozen. The organoids were then processed as described above for the western blot analysis of detergent-soluble and detergent-insoluble fractions.

[3] = test system: human cortical brain organoids; experiment: Whole-mount immunostaining of human cortical brain organoids (p62, poly-ubiquitin)
Procedure: Whole-Mount Immunostaining of Human Cortical Brain Organoids. Similar to the above-referenced procedures described for Drosophila tissues, human cortical brain organoids were immunostained with the following modifications: fixation and washes were done with 0.4% TRITON⋅ X-100; fixation was carried out for 50 minutes at room temperature; and organoids were blocked for >1 hour with PBS with 0.4% TRITON X-100 and 5% bovine serum albumin (BSA) before incubation with primary antibodies.
as §1
Whole-mount immunostaining of organoids was carried out following similar procedures as described above for Drosophila brains and retinas, with anti-poly-ubiquitin (FK2; Enzo Life Sciences) and anti-p62/SQSTM1 antibodies (Cell Signaling Technologies). […]

[4] = after heat shock, compared to control-treated organoids

OC[C@H]1O[C@H](O[C@H]2[C@H](O)[C@@H](O)C(O)O[C@@H]2CO)[C@H](O)[C@@H](O)[C@@H]1O (mixture of isomers) [maltose]
bursts [1, 4]: more bursts
number of active electrodes [1, 4]: higher number of active electrodes
number of bursting electrodes [1, 4]: higher number of bursting electrodes
number of spikes [1, 4]: higher number of spikes
neuronal activity (number of active electrodes, bursting electrodes, network bursts) ([1]; immediately after and at 17 hours and 43 hours after heat shock): significantly preserved; also recorded: higher neuronal activity
levels of maltose effective in preserving neuronal activity ([1]; organoids after heat shock): ≤ 5 mg/mL
neuronal activity (number of active electrodes, bursting electrodes, network bursts) ([1]; steady state / pre-heat shock): not modulated
expression of gene clusters involved in protein quality control (proteasome components, proteases/peptidases) ([2]; human cortical brain organoids): promoted the expression
gene expression changes induced by heat shock (RNA-seq) ([2]; human cortical brain organoids): prevented some of the gene expression changes
mRNA and proteins levels of CRYA (a-crystallin) ([2]; human cortical organoids): increased
p62 and ubiquitin immunoreactivity ([3]; heat-shocked organoids, compared to controls): significantly decreased
levels of p62 and poly-ubiquitinated proteins (immunostaining) ([3]; organoids, control conditions (no heat shock)): no change
